The results in this text go back to ChEMBL document CHEMBL3779775, “Synthesis, anti-inflammatory, analgesic, COX-1/2 inhibition activities and molecular docking study of pyrazoline derivatives” (Bioorg Med Chem, 2016).

For orientation: ED50 means the dose at which the effect has come halfway, by size or by number of responders. The term IC50 denotes the concentration needed to halve the response being measured.

Each structure is given as a SMILES string. Active and inactive are the calls of the source. No cut-off for these calls is given here.

The test system of data set [1] is Rattus norvegicus. Briefly: Ulcerogenicity in ip dosed fasted Sprague-Dawley rat after 24 hrs by hand lens. In kind it is toxicity, organism-based. Particulars: in vivo.
Data set [2] deals with Rattus norvegicus. The data set is described as follows: Antiinflammatory activity in ip dosed carrageenan induced Sprague-Dawley rat paw oedema model assessed as reduction of paw volume measured after 2 hrs by plethysmometer method. The format is functional. In general terms: Carrageenan injected into the paw causes an acute inflammation.
In data set [3] the test system is Mus musculus. The data set is described as follows: Analgesic activity in ip dosed albino Swiss mouse assessed as decrease in licking or blowing time administered as single dose measured after 1 hr by hot plate test. The format is functional. For orientation: In hot-plate and tail-flick tests a longer latency is read as antinociception.
Data set [4] deals with T1, Prostaglandin G/H synthase 1 (Ovis aries, UniProt P05979).
T1 sequence (P05979 whole entry): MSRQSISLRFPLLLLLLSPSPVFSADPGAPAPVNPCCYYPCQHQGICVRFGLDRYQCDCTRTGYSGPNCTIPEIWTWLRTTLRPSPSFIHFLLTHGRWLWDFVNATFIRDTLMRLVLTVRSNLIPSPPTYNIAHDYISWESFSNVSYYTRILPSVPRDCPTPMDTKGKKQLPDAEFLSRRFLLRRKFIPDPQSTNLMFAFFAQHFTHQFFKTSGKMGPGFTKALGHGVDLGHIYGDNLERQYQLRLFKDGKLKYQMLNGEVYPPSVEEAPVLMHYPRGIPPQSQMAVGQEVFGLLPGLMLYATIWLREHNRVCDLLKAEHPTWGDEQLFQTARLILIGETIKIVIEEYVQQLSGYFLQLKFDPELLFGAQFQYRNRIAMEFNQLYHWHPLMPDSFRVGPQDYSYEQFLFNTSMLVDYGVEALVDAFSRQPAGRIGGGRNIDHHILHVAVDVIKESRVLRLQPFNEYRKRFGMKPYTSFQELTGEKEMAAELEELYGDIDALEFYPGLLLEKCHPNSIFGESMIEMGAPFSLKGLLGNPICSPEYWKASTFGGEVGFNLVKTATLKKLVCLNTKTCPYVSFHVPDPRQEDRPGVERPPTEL
The data set is described as follows: Inhibition of ovine COX-1 using arachidonic acid as substrate assessed as production of […] preincubated for 5 mins followed by addition of substrate measured after 2 mins by EIA.

Data set [5] concerns Rattus norvegicus. The data set is described as follows: Antiinflammatory activity in carrageenan induced Sprague-Dawley rat paw oedema model assessed as reduction of paw volume at 200 mg/kg, ip measured after 2 hrs by plethysmometer method. In kind it is functional, organism-based.
Data set [6] deals with Mus musculus. The data set is described as follows: Analgesic activity in albino Swiss mouse assessed as decrease in licking or blowing time at 200 mg/kg, ip administered as single dose measured after 1 hr by hot plate test. The format is functional, organism-based.

For the molecule `CC(=O)Nc1ccc(C2=NN(c3ccccc3)C(c3ccc([N+](=O)[O-])cc3)C2)cc1` (stereo not drawn), the Activity in data set [1] was over 200 mg/kg. Moreover, the ED50 was found to be 91.3 mg/kg in data set [2] and 75.2 mg/kg in data set [3].

In the case of `CC(=O)Nc1ccc(C2=NN(c3ccccc3)C(c3ccc(Cl)cc3)C2)cc1` (stereo not drawn), in data set [1], the Activity was over 200 mg/kg. In addition, the ED50 in data set [2] stood at 74.2 mg/kg; in data set [3], 49.6 mg/kg. Further, the IC50 in data set [4] was over 100 µM.

In the case of `O=C(CO[N+](=O)[O-])N1N=C(c2ccc(Br)cc2)CC1c1ccc(Cl)cc1` (stereo not drawn), the result in data set [5] and in data set [6] was inactive.

The molecule `O=[N+]([O-])c1ccc(C2CC(c3ccc(F)cc3)=NN2)cc1` (stereo not drawn) registered an Activity in data set [1] of over 200 mg/kg. Besides, the ED50 is 89.7 mg/kg in data set [2] and 59.1 mg/kg in data set [3].

As for `O=C(CCl)Nc1ccc(C2=NN(C(=O)CCl)C(c3ccc([N+](=O)[O-])cc3)C2)cc1` (stereo not drawn), the Activity in data set [1] was over 200 mg/kg. For the same molecule, the ED50 in data set [2] stood at 90.3 mg/kg; in data set [3] it was 81.9 mg/kg.

Turning to `CC(=O)Nc1ccc(C2=NN(C(C)=O)C(c3ccc([N+](=O)[O-])cc3)C2)cc1` (stereo not drawn), the Activity in data set [1] is over 200 mg/kg. Moreover, the IC50 in data set [4] was over 100 µM. Further, in data set [3], the ED50 came to 48.1 mg/kg.

Consider `O=C(CO[N+](=O)[O-])N1N=C(c2ccc(Br)cc2)CC1c1ccc([N+](=O)[O-])cc1` (stereo not drawn), for which the outcome in data set [5] and in data set [6] was inactive.

On to `O=C(CO[N+](=O)[O-])N1N=C(c2ccc(F)cc2)CC1c1ccc([N+](=O)[O-])cc1` (stereo not drawn), for which the Activity in data set [1] was over 200 mg/kg. Moreover, the values for the ED50 in data set [2] and in data set [3] were 65.3 mg/kg and 55.1 mg/kg, respectively. The IC50 in data set [4] was over 100 µM.

In the case of `Nc1ccc(C2=NNC(c3ccc([N+](=O)[O-])cc3)C2)cc1` (stereo not drawn), the outcome in data set [5] and in data set [6] was inactive.

On to `O=C(CCl)N1N=C(c2ccccc2)CC1c1ccc([N+](=O)[O-])cc1` (stereo not drawn), for which the outcome in data set [5] and in data set [6] was inactive.

Consider `Nc1ccc(C2=NN(C(=O)CCl)C(c3ccc([N+](=O)[O-])cc3)C2)cc1` (stereo not drawn), for which the outcome in data set [5] and in data set [6] was inactive.

For the molecule `Cc1ccc(-c2cc(C(F)(F)F)nn2-c2ccc(S(N)(=O)=O)cc2)cc1` [CELECOXIB], the Activity in data set [1] was over 200 mg/kg. Besides, the ED50 in data set [2] was determined as 89 mg/kg; in data set [3] it was 72 mg/kg.

As to `Fc1ccc(C2=NNC(c3ccc(Cl)cc3)C2)cc1` (stereo not drawn), the result in data set [5] and in data set [6] was inactive.

With `CC(=O)c1ccc(NCC(=O)N2N=C(c3ccccc3)CC2c2ccc([N+](=O)[O-])cc2)cc1` (stereo not drawn), in data set [1], the Activity was over 200 mg/kg. Besides, the median effective dose (ED50) in data set [2] was 59.4 mg/kg; in data set [3] it was 38.6 mg/kg. For the same molecule, the IC50 in data set [4] was over 100 µM.

Consider `O=C(CO[N+](=O)[O-])N1N=C(c2ccccc2)CC1c1ccc([N+](=O)[O-])cc1` (stereo not drawn), for which the outcome in data set [5] and in data set [6] was inactive.

`O=C(CCl)N1N=C(c2ccc(F)cc2)CC1c1ccc([N+](=O)[O-])cc1` (stereo not drawn) displayed an Activity in data set [1] of over 200 mg/kg. For the same molecule, the ED50 was 98.4 mg/kg in data set [2] and 68.2 mg/kg in data set [3].

Molecule `CC(=O)c1ccc(NCC(=O)N2N=C(c3ccc(F)cc3)CC2c2ccc([N+](=O)[O-])cc2)cc1` (stereo not drawn) came in with an Activity in data set [1] of over 200 mg/kg. Also, the results for the ED50 in data set [2] and in data set [3] were 73.2 mg/kg and 49.4 mg/kg, respectively. Also, the IC50 in data set [4] is over 100 µM.

Regarding `O=C(CCl)N1N=C(c2ccc(Br)cc2)CC1c1ccc([N+](=O)[O-])cc1` (stereo not drawn), the result in data set [5] and in data set [6] was inactive.

The molecule `CC(=O)c1ccc(NCC(=O)N2N=C(c3ccc(Br)cc3)CC2c2ccc([N+](=O)[O-])cc2)cc1` (stereo not drawn) came in with an Activity in data set [1] of over 200 mg/kg. Also, the ED50 is 95.9 mg/kg in data set [2] and 87.8 mg/kg in data set [3].
